The values below come from patent publication US20240034991A1, “METHOD FOR EFFICIENTLY INDUCING REPROGRAMMING OF HUMAN CELL INTO NEURONAL CELL” (GUANGXI UNIVERSITY, priority 2022, published 2024).

This test concerns Human skin fibroblasts (BJ). The experiment in a line: Immunofluorescence detection of neuronal cell marker antigens in induced human skin fibroblasts (CiNCs). The test is classed as cell-based. Here is the method: After 48 h of induction, the induction medium was replaced with a neuronal cell maturation medium to continue promoting further maturation of the CiNCs, and the neuronal cell maturation medium was replaced with a neuronal cell medium after 72 h for long-term culture.
Immunofluorescence detection of neuronal cell marker antigens was conducted on human skin fibroblasts and cells induced by neuronal cell induction (N2B27+10 μM Forskolin) for 48 h. The method included the following specific steps: human skin fibroblasts and F-48h cells in a culture plate were fixated with 4% paraformaldehyde (PFA) at room temperature for 30 min; the cells were washed with a blocking solution three times, 5 min in each time; the cells were permeabilized by 1% TritonX-100 for 15 min at room temperature; the cells were washed with the blocking solution three times again; non-specific sites were blocked with 5% donkey serum, and then blocked for 2 h at room temperature; the cells were washed three times with TBP (Tritonx-Bovine albumin-Phosphate Buffer Saline) for 5 min in each time; a primary antibody was added for incubation at 4° C. overnight; on a next day, the culture plate was placed at room temperature, rewarmed for 20 min, and then washed with TBP three times for 5 min in each time, a secondary antibody and a Hoechst mixture were added in the dark, and incubated at room temperature for 1 h; after washing three times with a TBP solution, fluorescence microscope observation and photographing experiment were conducted.

SMILES strings stand for the structures.

As for `C=C[C@@]1(C)CC(=O)[C@]2(O)[C@@]3(C)[C@@H](O)CCC(C)(C)[C@@H]3[C@H](O)[C@H](OC(C)=O)[C@@]2(C)O1` [Forskolin], the “TUJ1 positive rate of CiNCs” value (N2B27+KSR+10 μM Forskolin, 48 h after induction) is recorded as 80%. For `c1ccc2c(-c3cnn4cc(-c5ccc(N6CCNCC6)cc5)cnc34)ccnc2c1` [LDN193189], the “Expression of neuronal cell marker antigens TUJ1, MAP2 and NeuN (immunofluorescence, FIG. 5)” value (shortened to “Expression”) (N2B27+KSR+5 μM compound) was “expressed neuronal cell marker antigens TUJ1, MAP2 and NeuN”. Consider `C[S+]([O-])c1ccc(-c2nc(-c3ccncc3)c(-c3ccc(F)cc3)[nH]2)cc1` (stereo not shown) [SB203580], for which the “Expression” value (N2B27+KSR+5 μM compound) was “expressed neuronal cell marker antigens TUJ1, MAP2 and NeuN”. For `Nc1ncnc2c1ncn2[C@@H]1O[C@@H]2COP(=O)(O)O[C@H]2[C@H]1O` [cAMP, cyclic Adenosine Monophosphate], the “Expression” value (N2B27+KSR+10 μM compound) was “expressed neuronal cell marker antigens TUJ1, MAP2 and NeuN”.
